Laboratory results reported in patent US6368788B1 (priority 1987, dated 2002).
Marks after values point to notes of the source that are not given here.

Columns and labels:
[1] = Ophthalmic diseases, parabulbar or conjunctival instillation; assay type: in vivo, human
Experimental: Forty one patients (41; 17 men and 24 women; ranging in age from 17 to 68 years) with various eye diseases of infectious and non-infectious origin were treated with L-Glu-L-Trp. Patients having the following infectious, and non-infectious, ophthalmic diseases were entered into the trial: a) nonviral conjunctivitis, keratitis, chronic uveitis, persistent sties, and, focal chorioretinitis; and, b) retinal pigment dystrophy, Grenblad-Stranberg syndrome, and maculophathy, respectively. Five patients were Class II invalids due to vision impairment, 4 were Class III, and 32 were impaired but not invalid. […] L-Glu-L-Trp was administered daily in a single 0.1 mL (10 μg) dose by the parabulbar route (Group 1; n=21), or alternatively one drop of the dipeptide solution (5 μg) was delivered into the conjunctival cavity twice daily on each of 5 consecutive days (Group 2; n=20). Thirty six patients undergoing conventional therapy served as a control group (Group 3; n=36).
Clinical diagnoses of patients entered into Group 1 were as follows: 4 subjects had diagnosed adenoviral conjunctivitis; 2 subjects, recurring eyelid sties; 3 subjects, chronic serous-plastic uveitis; 3 subjects, central chorioretinitis; 5 subjects, central retinal dystrophy in both eyes; 4 subjects, pigment degeneration of the retina.
Clinical diagnoses of patients entered into Group 2 were as follows: namely, 7 subjects had diagnosed chronic serous-plastic uveitis, and 13 subjects adenoviral conjunctivitis.
Vision was assessed using standard measurements: i.e., field of vision, visual acuity, electrophysiological indices. Ophthalmascopic examination was used to evaluate and score corneal epithelial integrity, extent of edema and infiltration of the cornea (all strata), uveitis, retinal inflammation (edema, focal and peripheral changes, exudation, hemorrhage, plasmohemorrhagia), and expansion in the vitreous body. Immune parameters in peripheral blood were also assessed. Following treatment, the trial subjects were followed for not less than 12 months.

[2] = system: lymphocytes of lymphoid organs; assay: Immune indices (E-RFC, EA-RFC, EAC-RFC) in healthy guinea pigs; assay type: in vivo; conditions: for E-RFC / EA-RFC / EAC-RFC: healthy guinea pigs, 1 mg/kg im daily 5 days, day 10
Experimental: Immune parameters were investigated in healthy male guinea pigs ([…]) following administration of test or control agents. Each test and control group consisted of 10 animals. […] Physiological saline was administered im to the animals of the control group. The affects of these treatments were determined on day 10 (i.e., 5 days after the last injection) by preparing cells from peripheral blood (PBL), thymus (TYM), lymph nodes (LN), spleen (SPL), and red pulp of bone marrow (BM). Cells were tested for antibody Fc receptors (EA-RFC), complement receptors (EAC-RFC), T-lymphocytes, “active” T-lymphocytes (E-RFC), B-lymphocytes (EA-RFC and EAC-RFC; according to the method of Bianco, C., et al., J. Exp. Med. 132(4):702-720 (1970). The results of these analyses are shown in TABLES 53-54, below, where data are expressed either as the number of RFC×10^9 per liter of blood, or RFC×10^3 per milligram (mg) of tissue.
Thymus, left paratracheal lymph node, and spleen were surgically removed, weighed, and homogenized in a glass Dounce homogenizer in Medium 199. Tissue fragments were removed by filtration through a chaperon. Bone marrow cell suspensions were prepared by irrigating the bone marrow canal of the pelvis with Medium 199 and homogenizing the irrigated solution. Suspensions from the different respective sources were purified by centrifuging the different cell samples on different aliquots of δ1.077 Ficoll-Urotrast for 40 minutes at 1500-1800 rpm. The lymphocyte interfaces from the gradients were collected into a siliconized test tube and washed in Medium 199. Residual red cells in the lymphocyte suspensions were lysed using 3% acetic acid in the presence of 0.05% Hessian-violet as a viability marker. Cell concentrations were determined microscopically using a Goryaev counting chamber. Cell concentrations were adjusted to 2.5×10^6/mL.
Ram erythrocytes (E) were washed 4× in saline (2000 rpm/10 min.) and suspended at a final concentration of 1% in Medium 199. For determinations of the percentage of E-rosette forming T-lymphocytes (E-RFC) in a sample, 0.1 mL of a prepared lymphocyte suspension (2.5×10^6/ml) was incubated with 0.1 mL of the 1% ram erythrocyte suspension at 37° C. for 10 min., centrifuged at 800-1000 rpm for 5 min., maintained at 4° C. for 2 hrs., and finally resuspended and counted in a Goryaev chamber. Activated T-lymphocytes (i.e., having increased E-RFC capacity) were determined by mixing the test lymphocyte suspension with E, immediately centrifuging for 5 min. at 800-1000 rpm, resuspending the cells and counting the rosettes formed in a Goryaev chamber.
Antibody-coated rabbit erythrocytes were used for determinations of EA-RFC (i.e., “activated” T-lymphocytes) according to the method of Stadecker, M. J., et al., J. Immunol. 11(6):1834-1837 (1973). Erythrocytes were prepared, incubated with an optimal dilution of anti-rabbit IgG, washed, and prepared as a 1% cell suspension in a manner analogous to those above (E-RFC, supra). EA-RFC assays were performed in a manner analogous to the description above, i.e., E-RFC, supra.
Determinations of EAC-RFC (i.e., B-lymphocytes) were performed according to the method described by Bianco, C., et al., J. Exp. Med. 132(4):702-720 (1970).

[3] = system: influenza; design: species or system human; conditions: in vivo

For L-Glu-L-Trp, the “Patients with “good response”” value ([1]; Group 1, parabulbar) was 9, the “Patients with “marked favorable response”” value ([1]; Group 1, parabulbar) was 9 and the “Patients with “good response”” value ([1]; Group 2, instillation) was 2. For the same substance, the “Patients with “marked favorable response”” value ([1]; Group 2, instillation) was 18, the Laboratory effects ([1]; in vivo) was “increase in the number of circulating peripheral blood B- and T-lymphocytes” and the “Patients with “poor response”” value ([1]; in vivo) was 3. The “Subjects in whom treatment was found effective” value ([1]; infectious eye diseases) was 66.7%, the “Patients with marked positive response” value ([1]; infectious eye diseases, parabulbar introduction) was 75% and the “Patients with good response” value ([1]; instillation) was 10%. The “Patients with marked positive response” value ([1]; instillation) was 90%, the “Faster recovery than control group, adenoviral conjunctivitis” value ([1]; marked responses) was 10 to 13 days and the “Rise in visual acuity, chronic serous-plastic uveitis” value ([1]; marked responses) was over 0.1. The “Patients with good response” value ([1]; parabulbar introduction) was 15%, the “Decrease of T-lymphocytes in LN and BM” value ([2]; 1 mg/kg im, 5 days) was 50% and the “Increase of splenic and thymus T-cells” value ([2]; 1 mg/kg im, 5 days) was 2-9%. The E-RFC ([2]; BM) was 11.2 ± 2.3* 10^3/mg, the EA-RFC ([2]; BM) was 25.1 ± 1.9* 10^3/mg and the EAC-RFC ([2]; BM) was 13.9 ± 2.1 10^3/mg. For the same substance, the E-RFC ([2]; LN) was 81.4 ± 7.6* 10^3/mg, the EA-RFC ([2]; LN) was 61.7 ± 8.2 10^3/mg and the EAC-RFC ([2]; LN) was 173.3 ± 12.7 10^3/mg. The E-RFC ([2]; PBL) was 1.59 ± 0.78 10^9/L, the EA-RFC ([2]; PBL) was 0.82 ± 0.09 10^9/L and the EAC-RFC ([2]; PBL) was 0.79 ± 0.08* 10^9/L. The E-RFC ([2]; SPL) was 75.9 ± 6.8 10^3/mg, the EA-RFC ([2]; SPL) was 81.2 ± 7.4* 10^3/mg and the EAC-RFC ([2]; SPL) was 141.5 ± 22.6 10^3/mg. The E-RFC ([2]; TYM) was 448.1 ± 51.4 10^3/mg, the EA-RFC ([2]; TYM) was 542.6 ± 42.3 10^3/mg and the EAC-RFC ([2]; TYM) was 0 10^3/mg. The “Increase of complement receptor bearing cells (EAC-RFC) in blood” value ([2]; guinea pig, in vivo) was 2 fold, the “CD2+ lymphocytes (E-RFC), BM” value ([2]; treated guinea pigs) was 50% ↓ (p < 0.05) and the “CD2+ lymphocytes (E-RFC), LN” value ([2]; treated guinea pigs) was 32% ↓ (p < 0.05). For the same substance, the “CD2+ lymphocytes (E-RFC), Spleen” value ([2]; treated guinea pigs) was “ns”, the “CD2+ lymphocytes (E-RFC), Thymus” value ([2]; treated guinea pigs) was “ns” and the “Fc-receptor+ lymphocytes (EA-RFC), LN” value ([2]; treated guinea pigs) was “ns”. For the same substance, the “Fc-receptor+ lymphocytes (EA-RFC), PBL” value ([2]; treated guinea pigs) was “ns”, the “Fc-receptor+ lymphocytes (EA-RFC), Thymus” value ([2]; treated guinea pigs) was “ns” and the Clinical outcome [3] was “significantly decreased the incidence of sickness in the vaccinated subjects for a period of 12 months”.
